Laboratory results as given in the NIST ThermoML archive (doi:10.1021/je600518s).
± gives the expanded uncertainty stated by the source.

Conditions: Liquid, Ebulliometric method (Recirculating still)

COC(C)=O [methyl ethanoate]
vapor or sublimation pressure (304 K): 37.14 ± 0.19 kPa | vapor or sublimation pressure (306 K): 40.4 ± 0.21 kPa | vapor or sublimation pressure (308 K): 43.89 ± 0.22 kPa | vapor or sublimation pressure (310 K): 47.62 ± 0.24 kPa | vapor or sublimation pressure (312 K): 51.6 ± 0.26 kPa | vapor or sublimation pressure (314 K): 55.85 ± 0.28 kPa | vapor or sublimation pressure (316 K): 60.38 ± 0.31 kPa | vapor or sublimation pressure (318 K): 65.21 ± 0.33 kPa | vapor or sublimation pressure (320 K): 70.34 ± 0.36 kPa | vapor or sublimation pressure (322 K): 75.79 ± 0.39 kPa | vapor or sublimation pressure (324 K): 81.58 ± 0.41 kPa | vapor or sublimation pressure (326 K): 87.72 ± 0.45 kPa | vapor or sublimation pressure (328 K): 94.23 ± 0.48 kPa | vapor or sublimation pressure (330 K): 101.12 ± 0.51 kPa | vapor or sublimation pressure (332 K): 108.41 ± 0.55 kPa | vapor or sublimation pressure (334 K): 116.11 ± 0.59 kPa | vapor or sublimation pressure (336 K): 124.25 ± 0.63 kPa | vapor or sublimation pressure (338 K): 132.83 ± 0.67 kPa
